{"source": "paper PMC10583239", "about": "(CPT: Pharmacometrics & Systems Pharmacology, 2023)", "key": {"[1]": {"system": "human colon adenocarcinoma clone 2 (Caco‐2)", "assay": "Caco‐2 apparent permeability", "type": "in vitro ADME", "settings": "Caco‐2 cell line"}, "CYP2D6 [2]": {"target": "T1, CYP2D6 (Homo sapiens, UniProt P10635)", "T1 sequence (P10635 whole entry)": "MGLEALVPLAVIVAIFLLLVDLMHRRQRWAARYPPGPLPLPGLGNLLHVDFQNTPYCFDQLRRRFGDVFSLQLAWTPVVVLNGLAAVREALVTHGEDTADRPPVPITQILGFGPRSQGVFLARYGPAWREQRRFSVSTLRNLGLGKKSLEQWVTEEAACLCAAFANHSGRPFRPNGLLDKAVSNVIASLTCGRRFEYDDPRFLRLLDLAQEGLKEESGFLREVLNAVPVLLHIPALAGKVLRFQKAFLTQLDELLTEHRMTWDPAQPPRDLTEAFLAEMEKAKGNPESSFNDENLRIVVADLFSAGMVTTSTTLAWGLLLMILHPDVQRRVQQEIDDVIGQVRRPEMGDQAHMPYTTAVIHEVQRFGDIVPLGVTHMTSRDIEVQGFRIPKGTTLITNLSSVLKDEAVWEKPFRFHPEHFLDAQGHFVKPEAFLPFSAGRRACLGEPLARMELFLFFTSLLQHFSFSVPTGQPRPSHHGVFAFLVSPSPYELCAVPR", "assay": "Metabolic stability in recombinant human CYP2D6 with NADPH", "type": "in vitro ADME", "settings": "CYP2D6 share of CYP metabolism, scaled by abundance and ISEF"}, "[3]": {"assay": "Clinical DDI cohorts: pomotrelvir with ritonavir 100 mg"}, "PBPK model parameters": {"assay": "PBPK model parameters", "parameters": "species or system human"}, "Human plasma protein": {"system": "Human plasma protein", "assay": "Human plasma protein binding", "type": "in vitro ADME", "settings": "PBPK input"}, "[4]": {"assay": "Human plasma protein binding", "type": "in vitro ADME", "settings": "human, human plasma"}, "[5]": {"system": "Madin Darby canine kidney–breast cancer resistance protein (BCRP) cell lines", "assay": "MDCK‐BCRP apparent permeability", "type": "in vitro ADME", "settings": "MDCK‐BCRP cell line"}, "BCRP": {"system": "BCRP", "assay": "MDCK‐BCRP apparent permeability", "type": "in vitro ADME, canine", "settings": "dog"}, "CYP2C9 [6]": {"target": "T2, CYP2C9 (Homo sapiens, UniProt P11712)", "T2 sequence (P11712 whole entry)": "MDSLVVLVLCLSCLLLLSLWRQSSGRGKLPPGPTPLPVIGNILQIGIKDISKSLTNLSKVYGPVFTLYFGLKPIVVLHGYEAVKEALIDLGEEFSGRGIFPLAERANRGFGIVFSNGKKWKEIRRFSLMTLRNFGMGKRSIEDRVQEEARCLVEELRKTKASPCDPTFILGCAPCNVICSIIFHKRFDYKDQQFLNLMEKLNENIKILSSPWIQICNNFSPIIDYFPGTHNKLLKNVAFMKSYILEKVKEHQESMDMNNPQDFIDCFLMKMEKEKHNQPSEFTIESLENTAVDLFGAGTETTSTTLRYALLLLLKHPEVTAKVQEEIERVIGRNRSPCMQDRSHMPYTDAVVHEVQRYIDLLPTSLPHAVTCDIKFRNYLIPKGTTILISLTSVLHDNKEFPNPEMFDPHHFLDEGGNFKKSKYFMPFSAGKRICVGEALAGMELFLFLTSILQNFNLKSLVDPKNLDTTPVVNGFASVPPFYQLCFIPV", "assay": "biochemical"}, "CYP2C9 [7]": {"target": "T2, CYP2C9", "assay": "Metabolic stability in recombinant human CYP2C9 with NADPH", "type": "in vitro ADME", "settings": "CYP2C9 share of CYP metabolism, scaled by abundance and ISEF"}, "CYP2B6 [8]": {"target": "T3, CYP2B6 (Homo sapiens, UniProt P20813)", "T3 sequence (P20813 1-491)": "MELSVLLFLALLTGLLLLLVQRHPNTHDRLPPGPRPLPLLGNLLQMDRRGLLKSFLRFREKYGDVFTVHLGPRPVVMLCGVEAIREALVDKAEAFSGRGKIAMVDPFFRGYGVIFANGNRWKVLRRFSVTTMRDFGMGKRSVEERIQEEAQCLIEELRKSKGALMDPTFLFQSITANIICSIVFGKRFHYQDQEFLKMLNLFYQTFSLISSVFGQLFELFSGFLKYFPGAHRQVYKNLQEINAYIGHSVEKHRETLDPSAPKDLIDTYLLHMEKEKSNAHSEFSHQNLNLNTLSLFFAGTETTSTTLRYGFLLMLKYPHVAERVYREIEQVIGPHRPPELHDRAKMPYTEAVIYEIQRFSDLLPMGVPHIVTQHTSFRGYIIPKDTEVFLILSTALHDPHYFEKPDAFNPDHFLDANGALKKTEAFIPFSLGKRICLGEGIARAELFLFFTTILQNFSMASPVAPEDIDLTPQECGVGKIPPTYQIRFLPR", "assay": "Metabolic stability in recombinant human CYP2B6 with NADPH", "type": "in vitro ADME", "settings": "CYP2B6 share of CYP metabolism, scaled by abundance and ISEF"}, "Aqueous phase solubility": {"assay": "Aqueous phase solubility", "type": "physicochemical", "settings": "pH 6.71, aqueous buffer"}, "CYP2C9 [9]": {"target": "T2, CYP2C9", "settings": "main text summary"}, "CYP2C8": {"target": "T4, CYP2C8 (Homo sapiens, UniProt P10632)", "T4 sequence (P10632 1-490)": "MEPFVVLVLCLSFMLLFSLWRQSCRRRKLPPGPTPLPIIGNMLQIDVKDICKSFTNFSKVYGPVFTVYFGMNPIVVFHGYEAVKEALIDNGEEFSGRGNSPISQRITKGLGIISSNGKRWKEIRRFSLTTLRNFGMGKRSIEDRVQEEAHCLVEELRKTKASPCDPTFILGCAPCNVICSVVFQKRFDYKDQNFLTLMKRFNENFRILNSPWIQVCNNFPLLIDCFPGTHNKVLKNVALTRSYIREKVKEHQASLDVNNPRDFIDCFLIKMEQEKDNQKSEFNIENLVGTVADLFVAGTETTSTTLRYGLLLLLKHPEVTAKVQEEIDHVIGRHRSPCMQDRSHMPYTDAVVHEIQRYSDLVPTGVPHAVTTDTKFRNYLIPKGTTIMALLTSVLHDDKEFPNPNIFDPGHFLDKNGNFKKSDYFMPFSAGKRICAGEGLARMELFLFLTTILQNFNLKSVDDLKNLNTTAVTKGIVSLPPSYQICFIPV", "assay": "CYP2C8 inhibition in human liver microsomes", "type": "in vitro ADME"}, "recombinant human CYP3A5": {"target": "recombinant human CYP3A5 (Homo sapiens, UniProt P20815)", "sequence (P20815 whole entry)": "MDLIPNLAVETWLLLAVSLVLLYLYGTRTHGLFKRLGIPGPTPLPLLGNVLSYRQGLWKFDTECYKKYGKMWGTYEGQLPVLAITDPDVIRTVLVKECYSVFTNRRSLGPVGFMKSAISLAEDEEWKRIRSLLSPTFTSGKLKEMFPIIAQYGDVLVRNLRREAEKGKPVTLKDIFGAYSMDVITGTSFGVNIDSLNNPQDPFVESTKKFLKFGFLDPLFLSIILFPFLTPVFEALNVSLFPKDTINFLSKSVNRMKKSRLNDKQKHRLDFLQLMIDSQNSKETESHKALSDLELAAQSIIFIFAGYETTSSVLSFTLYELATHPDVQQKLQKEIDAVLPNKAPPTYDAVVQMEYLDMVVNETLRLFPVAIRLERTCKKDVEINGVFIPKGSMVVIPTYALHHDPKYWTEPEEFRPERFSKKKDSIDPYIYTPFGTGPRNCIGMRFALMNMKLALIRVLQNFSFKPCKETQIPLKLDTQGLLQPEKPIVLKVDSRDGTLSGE", "assay": "Metabolic stability in recombinant human CYP3A5 with NADPH", "type": "in vitro ADME", "settings": "CYP3A5 share of CYP metabolism, scaled by abundance and ISEF"}, "CYP2D6 [10]": {"target": "T1, CYP2D6", "assay": "CYP2D6 inhibition in human liver microsomes", "type": "in vitro ADME"}, "Blood‐to‐plasma ratio": {"assay": "Blood‐to‐plasma ratio", "type": "in vitro ADME", "settings": "PBPK input"}, "CYP2B6 [11]": {"system": "CYP2B6", "assay": "in vitro", "settings": "human"}, "CYP2B6 [12]": {"target": "T3, CYP2B6", "settings": "main text summary"}, "[13]": {"settings": "(20 mg PBI + 100 mg RTV, SD)/(100 mg POMO, SD)"}, "[14]": {"settings": "(50 mg PBI + 100 mg RTV, Day1)/(100 mg POMO, SD)"}, "[15]": {"settings": "(50 mg PBI + 100 mg RTV, Day5)/(100 mg POMO, SD), AUClast/Dose over AUCinf/Dose"}, "[16]": {"settings": "(50 mg PBI + 100 mg RTV, Day10)/(100 mg POMO, SD), AUClast/Dose over AUCinf/Dose"}}, "note": "Marks after values point to notes of the source that are not given here.", "data": [{"smiles": "N#C[C@H](C[C@@H]1CCCNC1=O)NC(=O)[C@H](CC1CC1)NC(=O)c1cc2cccc(Cl)c2[nH]1", "note": "[Pomotrelvir, pomotrelvir]", "values": [{"measurement": "efflux ratio", "setting": "[1]", "result": "large"}, {"measurement": "Relative Contribution (fm)", "setting": "CYP2D6 [2]", "result": "negligible"}, {"measurement": "change of dose‐normalized systemic exposure in the presence of ritonavir", "setting": "[3]; 100 mg ritonavir, all cohorts and parameters", "result": "0.92–1.54 fold"}, {"measurement": "AUCinf/dose GMR (90% CI)", "setting": "[3]; [13]", "result": "0.92 (0.67, 1.26)"}, {"measurement": "AUClast/dose GMR (90% CI)", "setting": "[3]; [13]", "result": "1.06 (0.68, 1.65)"}, {"measurement": "Cmax/dose GMR (90% CI)", "setting": "[3]; [13]", "result": "0.97 (0.76, 1.22)"}, {"measurement": "AUCinf/dose GMR (90% CI)", "setting": "[3]; [14]", "result": "1.54 (1.13, 2.1)"}, {"measurement": "AUClast/dose GMR (90% CI)", "setting": "[3]; [14]", "result": "1.38 (1.08, 1.76)"}, {"measurement": "Cmax/dose GMR (90% CI)", "setting": "[3]; [14]", "result": "1.46 (1.16, 1.84)"}, {"measurement": "Cmax/dose GMR (90% CI)", "setting": "[3]; (50 mg PBI + 100 mg RTV, Day5)/(100 mg POMO, SD)", "result": "1.3 (0.9, 1.89)"}, {"measurement": "AUCinf/dose GMR (90% CI)", "setting": "[3]; [15]", "result": "1.34 (0.96, 1.87) ^a"}, {"measurement": "AUClast/dose GMR (90% CI)", "setting": "[3]; [15]", "result": "1.34 (0.96, 1.87) ^a"}, {"measurement": "Cmax/dose GMR (90% CI)", "setting": "[3]; (50 mg PBI + 100 mg RTV, Day10)/(100 mg POMO, SD)", "result": "1.41 (1.05, 1.91)"}, {"measurement": "AUCinf/dose GMR (90% CI)", "setting": "[3]; [16]", "result": "1.37 (1.05, 1.79) ^b"}, {"measurement": "AUClast/dose GMR (90% CI)", "setting": "[3]; [16]", "result": "1.37 (1.05, 1.79) ^b"}, {"measurement": "increase in exposure upon coadministration with ritonavir", "setting": "[3]; single or multiple doses", "result": "< 50", "unit": "%"}, {"measurement": "fmCYP3A4", "setting": "PBPK model parameters; PBPK input, set to match the ritonavir DDI study", "result": 0.25}, {"measurement": "CYP3A4 CLint (unbound)", "setting": "PBPK model parameters; retrograde model from CL/F", "result": 0.376, "unit": "µL/min/pmol"}, {"measurement": "fmCYP3A4", "setting": "PBPK model parameters; value to match the ritonavir DDI study", "result": 25, "unit": "%"}, {"measurement": "Main binding protein", "setting": "Human plasma protein", "result": "HSA"}, {"measurement": "fraction unbound", "setting": "[4]", "result": 0.044}, {"measurement": "efflux ratio", "setting": "[5]", "result": "large"}, {"measurement": "Papp", "setting": "BCRP", "result": 1.01, "unit": "×10⁻⁶ cm/s"}, {"measurement": "Ki", "setting": "CYP2C9 [6]", "result": 12.3, "unit": "µM"}, {"measurement": "Relative Contribution (fm)", "setting": "CYP2C9 [7]", "result": "negligible"}, {"measurement": "Relative Contribution (fm)", "setting": "CYP2B6 [8]", "result": "negligible"}, {"measurement": "solubility", "setting": "Aqueous phase solubility", "result": 10, "unit": "µg/mL"}, {"measurement": "inhibitory effect on CYP2C9 in vitro (in words)", "setting": "CYP2C9 [9]", "result": "weak to moderate inhibition"}, {"measurement": "Ki", "setting": "CYP2C8", "result": 1.93, "unit": "µM"}, {"measurement": "inhibitory effect on CYP2C8 in vitro (in words)", "setting": "CYP2C8; main text summary", "result": "weak to moderate inhibition"}, {"measurement": "Relative Contribution (fm)", "setting": "recombinant human CYP3A5", "result": "negligible"}, {"measurement": "Ki", "setting": "CYP2D6 [10]", "result": 25.4, "unit": "µM"}, {"measurement": "inhibitory effect on CYP2D6 in vitro (in words)", "setting": "CYP2D6 [10]; main text summary", "result": "No inhibitory effect"}, {"measurement": "B:P", "setting": "Blood‐to‐plasma ratio", "result": 0.93}, {"measurement": "EC50 at 72 h", "setting": "CYP2B6 [11]", "result": 4.84, "unit": "µM"}, {"measurement": "inhibitory effect on CYP2B6 in vitro (in words)", "setting": "CYP2B6 [12]", "result": "No inhibitory effect"}]}]}
